In patent publication US20250243208A1, “BICYCLIC HETEROCYCLES AS MRGPRX2 ANTAGONISTS” (Incyte Corporation, priority 2024, published 2025):

How the values were obtained:
MRGPRX2 [1] = target: T1, MRGPRX2 (Homo sapiens, UniProt Q96LB1); assay: potency comparison of separated isomers (assay not stated); conditions: compared with the other separated diastereomer/enantiomer
T1 sequence (Q96LB1 1-330): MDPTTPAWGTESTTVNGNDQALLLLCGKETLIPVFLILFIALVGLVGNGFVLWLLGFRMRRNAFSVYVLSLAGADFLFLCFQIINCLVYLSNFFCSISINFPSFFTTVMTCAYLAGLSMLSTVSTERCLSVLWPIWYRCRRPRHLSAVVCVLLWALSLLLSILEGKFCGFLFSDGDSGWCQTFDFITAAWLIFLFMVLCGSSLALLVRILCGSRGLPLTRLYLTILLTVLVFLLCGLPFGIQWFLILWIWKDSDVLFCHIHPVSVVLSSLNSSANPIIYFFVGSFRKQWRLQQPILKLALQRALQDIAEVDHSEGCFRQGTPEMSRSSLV

MRGPRX2 [2] = target: T1, MRGPRX2; assay: MRGPRX2 β-Arrestin recruitment assay (PathHunter CHO-K1); format: cell-based; parameters: host or cells: PathHunter CHO-K1; conditions: PathHunter CHO-K1 cells, agonist Cortistatin 14 0.25 μM
Description: Example C: MRGPRX2 β-Arrestin Assay
This assay measures compound inhibition of β-Arrestin recruitment, which is part of the G protein-independent pathway that results from the ligand-activated GPCR phosphorylation by specific GPCR kinases. The PathHunter CHO-K1 MRPGRX2 B-Arrestin Cell line stably expressing ProLink tagged MRGPRX2 and Enzyme Acceptor Tagged B-Arrestin was purchased from Eurofins DiscoverX, (Fremont, CA).
The cells were maintained in culture medium from the Europhins DiscoverX Cell Culture Kit-107 which includes FBS, hygromycin B and G418. For the assay, the cells were harvested and were resuspended with Cell Plating Reagent 2 (Eurofins DiscoverX). Cells were added 10000 cells in 25 μL/well to a 384-well black cell culture plate (Greiner VWR, Radnor, PA) which contained 125 nL/well of compound at a selected serially diluted concentration range or DMSO. The plate was incubated at 37° C. with 5% CO2 for 1 h. 2 μL/well of agonist Cortistatin 14 was diluted in Protein Dilution Buffer, (Eurofins DiscoverX) for a final concentration of 0.25 μM, was added and the plate was incubated at 37° C. with 5% CO2 for 90 min. 14 μL/well of Detection Reagent Mix (PathHunter Detection Kit, Eurofins DiscoverX) was added to the plates and further incubated for 1 h in the dark. Plates were read on the PHERAstar microplate reader (BMG Labtech Cary, NC) measuring luminescence 0.1 to 1 s per well. Data was normalized using DMSO only wells and wells with high concentration of reference antagonist as controls. Compound IC50 curves were globally fitted with 3- or 4-parameter Hill equation in a Genedata Screener (Genedata Basel, Switzerland).

MRGPRX2 [3] = target: T1, MRGPRX2; assay: MRGPRX2 IP1 HTRF assay; format: cell-based; parameters: host or cells: CHO-K1; conditions: CHO-K1 cells, agonist Cortistatin 14 1 μM, IP1 accumulation
Description: Example B: MRGPRX2 IP1 HTRF Assay
This assay measures compound inhibition of myo-Inositol 1 phosphate (IP1) accumulation in CHO-K1 cells. Chinese hamster ovary (CHO-K1) cells stably expressing human MRGPRX2 were purchased from GenScript (Piscataway, NJ).
For the HTRF IP1 determination, an IP-One GqKit (Perkin Elmer Cisbio, Waltham, MA), which includes all reagents and buffers in this protocol, was used. The cells were maintained in culture medium (Ham's F-12K) containing 10% (v/v) FBS, and 200 μg/mL Zeocin. For the assay, the cells were harvested and resuspended in culture medium with 2% FBS and without Zeocin, then were passed through a 40 μm filter. Cells were added at 20000 cells in a 5 μL/well to a 384-well white small volume cell culture plate (Greiner VWR, Radnor, PA) which contained 50 nL/well of test compound serially diluted at a selected concentration range in DMSO. 5 μL/well of prepared 2× Stimulation Buffer2 was then added to plates and was incubated at 37° C. with 5% CO2 for 1 h. 5 μL/well of agonist Cortistatin 14 (Bio-TechneR&D Systems, Minneapolis, MN) in 1× Stimulation Buffer 2, for a 1 μM final concentration, was then added to plates and incubated at 37° C. with 5% CO2 for 1 h. 6 μL/well of 1:20 diluted Detection Reagent Mix (d2 and Cryptate) was added to the plates and incubated for 1 h in the dark. Plates were read on the PHERAstar microplate reader (BMG Labtech Cary, NC) to determine the HTRF ratio of the acceptor and donor emission signals. The IP1 concentrations were calculated from a standard curve following the IP-One GQ kit instructions. Wells with DMSO only and wells with high concentration of reference antagonist were used as controls for normalization. Compound IC50 curves were globally fitted with 3- or 4-parameter Hill equation in a Genedata Screener (Genedata Basel, Switzerland).

relative potency of the separated isomer (MRGPRX2 [1])	IC50 (MRGPRX2 [2])	IC50 (MRGPRX2 [3])	SMILES
active	0.1 to 100 nM		O=C1NCC2(CN(C(CNc3cc(C(F)(F)F)nc4cc(C(F)(F)F)nn34)c3ccc(F)cc3)C2)N1 (single isomer, unassigned) [Example 37, 2-(2-((2,5-Bis(trifluoromethyl)pyrazolo[1,5-a]pyrimidin-7-yl)amino)-1-(4-fluorophenyl)ethyl)-2,5,7-triazaspiro[3.4]octan-6-one]
more potent	0.1 to 100 nM	0.1 to 100 nM	CC(CNc1cc(C(F)(F)F)nc2cc(C(F)(F)F)nn12)(c1ccc(F)cc1)C1CCN(CC(N)=O)C1 (single isomer, unassigned) [Example 17, 2-(3-(1-((2,5-Bis(trifluoromethyl)pyrazolo[1,5-a]pyrimidin-7-yl)amino)-2-(4-fluorophenyl)propan-2-yl)pyrrolidin-1-yl)acetamide]
	0.1 to 100 nM	0.1 to 100 nM	CC(CNc1cc(C(F)(F)F)nc2cc(C(F)(F)F)nn12)(c1ccccc1)C1CNC1 (racemic) [Example 11, N-(2-(Azetidin-3-yl)-2-phenylpropyl)-2,5-bis(trifluoromethyl)pyrazolo[1,5-a]pyrimidin-7-amine]
		0.1 to 100 nM	C[C@](CNc1cc(C(F)(F)F)nc2cc(C(F)(F)F)nn12)(c1ccc(F)cc1)C1CN(C(N)=O)C1 (single isomer, unassigned) [Example 5, 3-(1-((2,5-Bis(trifluoromethyl)pyrazolo[1,5-a]pyrimidin-7-yl)amino)-2-(4-fluorophenyl)propan-2-yl)azetidine-1-carboxamide]
more potent	0.1 to 100 nM		O=C1NC2(CCO1)CN(C(CNc1cc(C(F)(F)F)nc3cc(C(F)(F)F)nn13)c1ccc(F)cc1)C2 (single isomer, unassigned) [Example 25, 2-(2-((2,5-Bis(trifluoromethyl)pyrazolo[1,5-a]pyrimidin-7-yl)amino)-1-(4-fluorophenyl)ethyl)-7-oxa-2,5-diazaspiro[3.5]nonan-6-one]
	0.1 to 100 nM	0.1 to 100 nM	C[C@](CNc1cc(C(F)(F)F)nc2cc(C(F)(F)F)nn12)(c1ccc(F)cc1)C1CN(C(N)=O)C1 (single isomer, unassigned) [Example 6, 3-(1-((2,5-Bis(trifluoromethyl)pyrazolo[1,5-a]pyrimidin-7-yl)amino)-2-(4-fluorophenyl)propan-2-yl)azetidine-1-carboxamide]
	0.1 to 100 nM	0.1 to 100 nM	CC(CNc1cc(C(F)F)nc2cc(C(F)(F)F)nn12)(c1ccccc1)C1CN(C(N)=O)C1 (racemic) [Example 8, 3-(1-((5-(Difluoromethyl)-2-(trifluoromethyl)pyrazolo[1,5-a]pyrimidin-7-yl)amino)-2-phenylpropan-2-yl)azetidine-1-carboxamide]
more potent	0.1 to 100 nM	0.1 to 100 nM	CC(CNc1cc(C(F)(F)F)nc2cc(C(F)(F)F)nn12)(c1ccc(F)cc1)C1CCN(C(=O)NCCO)C1 (single isomer, unassigned) [Example 16, 3-(1-((2,5-Bis(trifluoromethyl)pyrazolo[1,5-a]pyrimidin-7-yl)amino)-2-(4-fluorophenyl)propan-2-yl)-N-(2-hydroxyethyl)pyrrolidine-1-carboxamide]
more potent	0.1 to 100 nM		[2H]C([2H])([2H])NC(=O)C1CN(C(CNc2cc(C(F)(F)F)nc3cc(C(F)(F)F)nn23)c2ccc(F)cc2)C1 (single isomer, unassigned) [Example 26, 1-(2-((2,5-Bis(trifluoromethyl)pyrazolo[1,5-a]pyrimidin-7-yl)amino)-1-(4-fluorophenyl)ethyl)-N-(methyl-d3)azetidine-3-carboxamide]
	0.1 to 100 nM	0.1 to 100 nM	CC(CNc1cc(C(F)F)nc2cc(C(F)(F)F)nn12)(c1ccccc1)C1CN(S(N)(=O)=O)C1 (racemic) [Example 7, 3-(1-((5-(Difluoromethyl)-2-(trifluoromethyl)pyrazolo[1,5-a]pyrimidin-7-yl)amino)-2-phenylpropan-2-yl)azetidine-1-sulfonamide]
	0.1 to 100 nM	0.1 to 100 nM	NC(=O)N1CCC(C(CO)(CNc2cc(C(F)(F)F)nc3cc(C(F)(F)F)nn23)c2ccc(F)cc2)C1 (single isomer, unassigned) [Example 18, 3-(1-((2,5-Bis(trifluoromethyl)pyrazolo[1,5-a]pyrimidin-7-yl)amino)-2-(4-fluorophenyl)-3-hydroxypropan-2-yl)pyrrolidine-1-carboxamide]
active	0.1 to 100 nM		O=C1CC2(CN1)CN(C(CNc1cc(C(F)(F)F)nc3cc(C(F)(F)F)nn13)c1ccc(F)cc1)C2 (single isomer, unassigned) [Example 36, 2-(2-((2,5-Bis(trifluoromethyl)pyrazolo[1,5-a]pyrimidin-7-yl)amino)-1-(4-fluorophenyl)ethyl)-2,6-diazaspiro[3.4]octan-7-one]
	0.1 to 100 nM	0.1 to 100 nM	CC(CNc1cc(C(F)(F)F)nc2cc(C(F)(F)F)nn12)(c1ccccc1)C1CN(C(N)=O)C1 (racemic) [Example 10, 3-(1-((2,5-Bis(trifluoromethyl)pyrazolo[1,5-a]pyrimidin-7-yl)amino)-2-phenylpropan-2-yl)azetidine-1-carboxamide]
more potent	0.1 to 100 nM		NC(=O)N1CCC(C(CNc2cc(C(F)(F)F)nc3cc(C(F)(F)F)nn23)c2ccc(F)cc2)C1 (single isomer, unassigned) [Example 20, 3-(2-((2,5-Bis(trifluoromethyl)pyrazolo[1,5-a]pyrimidin-7-yl)amino)-1-(4-fluorophenyl)ethyl)pyrrolidine-1-carboxamide]
active	0.1 to 100 nM		CC1(O)CN(C(CNc2cc(C(F)(F)F)nc3cc(C(F)(F)F)nn23)c2ccc(F)cc2)C1 (single isomer, unassigned) [Example 35, 1-(2-((2,5-Bis(trifluoromethyl)pyrazolo[1,5-a]pyrimidin-7-yl)amino)-1-(4-fluorophenyl)ethyl)-3-methylazetidin-3-ol]
	0.1 to 100 nM	0.1 to 100 nM	CC(CNc1cc(C(F)(F)F)nc2cc(C(F)(F)F)nn12)(c1ccccc1)C1CN(c2n[nH]c(N)n2)C1 (racemic) [Example 9, N-(2-(1-(5-Amino-1H-1,2,4-triazol-3-yl)azetidin-3-yl)-2-phenylpropyl)-2,5-bis(trifluoromethyl)pyrazolo[1,5-a]pyrimidin-7-amine]
	0.1 to 100 nM		Cn1ccnc1NC1CN(C(CNc2cc(C(F)(F)F)nc3cc(C(F)(F)F)nn23)c2ccc(F)cc2)C1 (racemic) [Example 28, N-(2-(4-Fluorophenyl)-2-(3-((1-methyl-1H-imidazol-2-yl)amino)azetidin-1-yl)ethyl)-2,5-bis(trifluoromethyl)pyrazolo[1,5-a]pyrimidin-7-amine]
